# The RepoRT retention time repository (doi:10.1016/j.chroma.2015.11.014)
# Test: RP, Agilent ZORBAX Eclipse Plus C18, 150 × 2.1 mm, 3.5 µm, 40 °C, 0.3 mL/min, estimated dead time 1.1 min; A: water + 0.1% formic acid; B: acetonitrile + 0.1% formic acid; gradient (min/%B) 0/2 1/2 2/20 16.5/98 22/98
# Conditions: stereoisomer not certain
row,Structure (SMILES),LC retention time [min]
1,O=C(O)c1ccc(O)cc1,5.62
2,CCN1CCCC1CNC(=O)c1cc(S(N)(=O)=O)ccc1OC (centres undefined),4.96
3,O=C(O)c1cc(O)c2c(c1)C(=O)c1cccc(O)c1C2=O,10.8
4,COC1C(O)CC(=O)OC(C)CC=CC=CC(OC2CCC(N(C)C)C(C)O2)C(C)CC(CC=O)C1OC1OC(C)C(OC2CC(C)(O)C(O)C(C)O2)C(N(C)C)C1O (centres undefined),5.77
5,CCc1cccc(C)c1N,7.96
6,CC(Cn1cnc2c(N)ncnc21)OCP(=O)(O)O (centres undefined),2.77
7,CCN(CC)CC(=O)Nc1c(C)cccc1C,5.77
8,Nc1ccc(S(=O)(=O)Nc2ccccn2)cc1,5.55
9,CN(C)C(=N)N=C(N)N,1.52
